The values below come from patent USRE50631E1, “ROR1 antibody immunoconjugates” (VelosBio Inc., priority 2017, dated 2025).

One series relates to Hep-3B. The series can be described thus: Cytotoxicity in vitro (CellTiter-Glo viability), Hep-3B. Type of series: cell-based. The note with it: Homo sapiens, Hep3B; Hep-3B (HCC), 72 hours.
The next series deals with A549. The series is described as follows: Cytotoxicity in vitro (CellTiter-Glo viability), A549. Type of series: cell-based, human. The note with it: A549 (NSCLC), 72 hours.
For a further series, the system named is DOHH2. Conditions: read-out: EC50 (nM), cytotoxicity in vitro; DOHH2 (DLBCL), 72 hours. The procedure: (§1) ROR1 binding by these conjugates was tested in cell culture to define the potency of various linker-cytotoxic agent combinations. Three different types of cancer cell lines were tested: B-lymphoma cell-lines TMD-8, HBL-1, and DOHH2; triple negative breast cancer cell lines HCC1187, MDA-MB-468, Bt549; and ovarian cancer cell lines A2008, TOV112D, JHOM1, and SKOvr3.
(§2) Cells were cultured in log phase growth and distributed into 96-well plates. Each cell line was plated at a slightly different cell density, ranging from 5×10^3 to 50×10^4 cells/well. Cells in duplicate were incubated with 3-fold serial dilution of a particular immunoconjugate (10, 3.33, 1.11, 0.37, 0.12, 0.041, 0.014, and 0.0045 μM) for 72 hours at 37° C. and 5% CO2. After treatment, cells were incubated with an equal volume of CellTiter-Glo® reagent (Promega Inc.) for 15 minutes at room temperature and viability was determined by a luminometer. Curves and EC50 values were generated in GraphPad Prism using a sigmoidal dose response non-linear regression fit.
(§3) Cells were grown and distributed into 96-well plates as described in Example 5. […] After treatment, cell viability was determined as described in Example 5. Cell surface ROR1 expression was assessed by quantitative flow cytometry and ROR1 expression was characterized as MFI>30 or MFI<30 (MFI: mean fluorescent intensity).

A further series deals with SKOvr3. The series is described as follows: Cytotoxicity in vitro (CellTiter-Glo viability), SKOvr3. It counts as cell-based, human. Conditions: SKOvr3 (Ovarian), 72 hours.
The subject of the next series is Bt549. The series is described as follows: Cytotoxicity in vitro (CellTiter-Glo viability), Bt549. It counts as cell-based, human. Conditions: Bt549 (TNBC), 72 hours.
Another series relates to HBL-1. The series can be described thus: Cytotoxicity in vitro (CellTiter-Glo viability), HBL-1. Conditions: HBL-1 (DLBCL), 72 hours. It counts as cell-based, human.
A further series deals with MDA-MB-468. The series is described as follows: Cytotoxicity in vitro (CellTiter-Glo viability), MDA-MB-468. The note with it: read-out: EC50 (nM), cytotoxicity in vitro; MDA-MB-468 (TNBC), 72 hours. The procedure: as §1, §2, §3
Another series relates to OvCar4. The series can be described thus: Cytotoxicity in vitro (CellTiter-Glo viability), OvCar4. Type of series: cell-based, human. Conditions: OvCar4 (Ovarian), 72 hours.
Another series deals with TOV112D. The series can be described thus: Cytotoxicity in vitro (CellTiter-Glo viability), TOV112D. It counts as cell-based, human. The note with it: TOV112D (Ovarian), 72 hours.
The test system of another series is JHOM1. The series can be described thus: Cytotoxicity in vitro (CellTiter-Glo viability), JHOM1. The note with it: JHOM1 (Ovarian), 72 hours. It counts as cell-based, human.
The next series relates to TMD-8. The series is described as follows: Cytotoxicity in vitro (CellTiter-Glo viability), TMD-8. Type of series: cell-based, human. The note with it: TMD-8 (DLBCL), 72 hours.
For another series, the system named is HCC1187. The series can be described thus: Cytotoxicity in vitro (CellTiter-Glo viability), HCC1187. The note with it: read-out: EC50 (nM), cytotoxicity in vitro; HCC1187 (TNBC), 72 hours. The procedure:
as §1, §2, §3

In the next series the test system is U2932. The series can be described thus: Cytotoxicity in vitro (CellTiter-Glo viability), U2932. It counts as cell-based, human. Conditions: U2932 (DLBCL), 72 hours.
Another series concerns As-PC1. The series is described as follows: Cytotoxicity in vitro (CellTiter-Glo viability), As-PC1. Type of series: cell-based, human. Conditions: As-PC1 (Pancreatic), 72 hours.
Another series relates to A2780. The series can be described thus: Cytotoxicity in vitro (CellTiter-Glo viability), A2780. It counts as cell-based, human. Conditions: A2780 (Ovarian), 72 hours.
Another series deals with SAOS. The series is described as follows: Cytotoxicity in vitro (CellTiter-Glo viability), SAOS. Type of series: cell-based, human. The note with it: SAOS (OS), 72 hours.
Another series concerns Hep-G2. Type of series: cell-based, human. The note with it: Hep-G2 (HCC), 72 hours; read-out: EC50 (nM), cytotoxicity in vitro.
The subject of a further series is WSU-DLCL. The series can be described thus: Cytotoxicity in vitro (CellTiter-Glo viability), WSU-DLCL. It counts as cell-based, human. Conditions: WSU-DLCL (DLBCL), 72 hours.
The next series relates to Bx-PC3. The series is described as follows: Cytotoxicity in vitro (CellTiter-Glo viability), Bx-PC3. It counts as cell-based, human. The note with it: Bx-PC3 (Pancreatic), 72 hours.
For the next series, the system named is Mec-vector. The series is described as follows: Cytotoxicity in vitro (CellTiter-Glo viability), Mec-vector. Conditions: read-out: EC50 (nM), cytotoxicity in vitro; Mec-vector (CLL), 72 hours. The procedure: as §2
(§4) Cells were grown and distributed into 96-well plates as described in Example 5. Cells in duplicate were incubated with 3-fold serial dilution of a particular immunoconjugate (660, 220, 73.3, 24.4, 8.14, 2.71, 0.91, and 0.3 nM) for 72 hours at 37° C. and 5% CO2. In some experiments, cells were incubated with an immunoconjugate for 96 hours instead of 72 hours (values highlighted with “*”). After treatment, cell viability was determined as described in Example 5. Cell surface ROR1 expression was assessed by quantitative flow cytometry and ROR1 expression was characterized as MFI>30 or MFI<30 (MFI: mean fluorescent intensity). […]

The subject of the next series is ES2. The series is described as follows: Cytotoxicity in vitro (CellTiter-Glo viability), ES2. It counts as cell-based, human. The note with it: ES2 (Ovarian), 72 hours.
Another series relates to FaDu. Type of series: cell-based, human. The note with it: FaDu (HN), 72 hours; read-out: EC50 (nM), cytotoxicity in vitro.
The next series deals with Mec-ROR. The series can be described thus: Cytotoxicity in vitro (CellTiter-Glo viability), Mec-ROR. The note with it: read-out: EC50 (nM), cytotoxicity in vitro; Mec-ROR (CLL), 72 hours. As for the experimental part:
as §2, §4

The next series has as its system U2OS. Type of series: cell-based, human. The note with it: U2OS (OS), 72 hours; read-out: EC50 (nM), cytotoxicity in vitro.
For the next series, the system named is HCC1937. The series can be described thus: Cytotoxicity in vitro (CellTiter-Glo viability), HCC1937. It counts as cell-based, human. The note with it: HCC1937 (TNBC), 72 hours.
A further series has as its system DU4475. The series can be described thus: Cytotoxicity in vitro (CellTiter-Glo viability), DU4475. It counts as cell-based, human. Conditions: DU4475 (TNBC), 72 hours.
The test system of a further series is HOS. The series can be described thus: Cytotoxicity in vitro (CellTiter-Glo viability), HOS. It counts as cell-based, human. The note with it: HOS (OS), 72 hours.
The next series relates to H460. The series can be described thus: Cytotoxicity in vitro (CellTiter-Glo viability), H460. The note with it: H460 (NSCLC), 72 hours. Type of series: cell-based, human.
The test system of another series is MDA-MB-231. The series is described as follows: Cytotoxicity in vitro (CellTiter-Glo viability), MDA-MB-231. The note with it: MDA-MB-231 (TNBC), 72 hours. It counts as cell-based, human.

Several values for one entry are separate records, joined by “and”; a condition that tells them apart may be missing. Identical values can stand only once. Non-standard residues stand in square brackets, D forms with d. Residues, ends and D or L forms follow the SMILES beside them. *: point of attachment. Dolaproine = CO[C@@H]([C@@H]1CCCN1)[C@@H](C)C(=O)O; Dil = CC[C@H](C)[C@H](NC)[C@@H](CC(=O)O)OC; X1 = C[C@@H](N*)[C@@H](O)c1ccccc1; NMeV = CN[C@H](C(=O)O)C(C)C

Protocol for Bt549: (§5) Cells were grown and distributed into 96-well plates as described in Example 5. Cells in duplicate were incubated with 3-fold serial dilution of a particular immunoconjugate (660, 220, 73.3, 24.4, 8.14, 2.71, 0.91, and 0.3 nM) for 72 hours at 37° C. and 5% CO2. […] After treatment, cell viability was determined as described in Example 5.
Protocol for JHOM1: as §5
Protocol for SKOvr3: as §5
Protocol for TMD-8: as §5
Protocol for TOV112D: as §5

Turning to `CN(C)CCN1C(=O)c2cccc3cc4ccccc4c(c23)C1=O` [Azonafide, azonafide, reference compound], the EC50 with Hep-3B and in the series on A549 (Homo sapiens) was > 1000 nM throughout.

`COc1cc2cc(c1Cl)N(C)C(=O)C[C@H](OC(=O)[C@H](C)N(C)C(=O)CCS)[C@]1(C)O[C@H]1[C@H](C)[C@@H]1C[C@@](O)(NC(=O)O1)[C@H](OC)/C=C/C=C(\C)C2` [DM1, N2′-Deacetyl-N2′-(3-mercaptol-oxopropyl)maytansine]: the concentration giving a half-maximal response (EC50) is 1.78 nM with DOHH2; 9.1 nM with SKOvr3; 0.047 nM with Bt549; 9.3 nM in the series with HBL-1; 15.2 nM with MDA-MB-468; > 1000 nM in the series with OvCar4. Also, the EC50 with TOV112D was 2.4 nM; in the series on JHOM1, 0.01 nM; with TMD-8, 1.4 nM; in the series on HCC1187 it was 3.9 nM.

As to `CC[C@H](C)[C@@H]([C@@H](CC(=O)N1CCC[C@H]1[C@H](OC)[C@@H](C)C(=O)N[C@H](C)[C@@H](O)c1ccccc1)OC)N(C)C(=O)[C@@H](NC(=O)[C@@H](NC)C(C)C)C(C)C` [MMAE, monomethyl auristatin E, reference compound] (H-[NMeV]V[Dil][Dolaproine]-X1), the EC50 in the series with U2932 is 0.006 nM; with As-PC1, 0.04 nM; in the series on A2780 it was 0.08 nM; in the series with SAOS it was 0.05 nM; with Hep-G2, > 1000 nM; with WSU-DLCL it was 0.06 nM. The EC50 was 0.04 nM with Bx-PC3; 0.5 nM in the series on Mec-vector; 0.06 nM with A549; 1.1 nM in the series on ES2; > 1000 nM in the series with FaDu; 0.007 nM with DOHH2. The EC50 with Mec-ROR is 0.6 nM; with SKOvr3 it was 0.01 nM; with Bt549, 0.047 nM; in the series on U2OS, 1.2 nM; in the series on HCC1937, > 1000 nM; in the series on OvCar4, 24.2 nM. For the same molecule, the EC50 was found to be 2.5 nM in the series with DU4475, 0.04 nM in the series on TOV112D, 0.01 nM in the series with JHOM1 and 0.06 nM with HOS.

As for `COc1cccc2c1C(=O)c1c(O)c3c(c(O)c1C2=O)C[C@@](O)(C(=O)CO)C[C@@H]3O[C@H]1C[C@H]2[C@H](O[C@@H]3[C@@H](OC)OCCN32)[C@H](C)O1` [PNU-159682, reference compound], the EC50 with H460 was 0.001 nM and 0.002 nM; in the series on MDA-MB-231 it was 0.005 nM.
